Laboratory results: the supplement of paper PMC10307832

Key:
Test in all cases: relative viability (nuclei count vs DMSO), 5 days (fraction); higher = more cells survive
[1] = compound: CC1=C(C(=NN1)C)CC2=C(C3=C(S2)N(C(=O)N(C3=O)C)CC(C)C)C(=O)N4C[C@@H](CO4)O + CCNC(=O)c1noc(-c2cc(C(C)C)c(O)cc2O)c1-c1ccc(CN2CCOCC2)cc1 [Luminespib] (partner 0.01 µM)
Procedure, shortened: (§1)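 Relative viability is defined as nuclei in treated wells over nuclei in vehicle wells. Duplicate plates were run and medians reported. Lung cancer cell lines in 1536-well plates were dosed by pin tool one day after seeding, with one drug or with a fixed anchor-drug dose plus five library-drug doses (not always all listed) in √10 steps, and nuclei were counted after 5 days.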

IDH-C35 + Linsitinib = compound: Cc1ccccc1C(C(=O)NC1CCCCC1)N(C(=O)Cn1ccnc1C)c1cccc(F)c1 [IDH-C35] + C[C@]1(O)C[C@@H](c2nc(-c3ccc4ccc(-c5ccccc5)nc4c3)c3c(N)nccn32)C1 [Linsitinib] (partner 1 µM)
Procedure, shortened: as §1

IDH-C35 + Decitabine = compound: Cc1ccccc1C(C(=O)NC1CCCCC1)N(C(=O)Cn1ccnc1C)c1cccc(F)c1 [IDH-C35] + Nc1ncn([C@H]2C[C@H](O)[C@@H](CO)O2)c(=O)n1 [Decitabine] (partner 2 µM)
Procedure, shortened: as §1

IDH-C35 + Trametinib = compound: Cc1ccccc1C(C(=O)NC1CCCCC1)N(C(=O)Cn1ccnc1C)c1cccc(F)c1 [IDH-C35] + CC(=O)Nc1cccc(-n2c(=O)n(C3CC3)c(=O)c3c(Nc4ccc(I)cc4F)n(C)c(=O)c(C)c32)c1 [Trametinib] (partner 0.02 µM)
Procedure, shortened: as §1

## LU99A
[1]; first compound 0.0025 µM
  relative viability: 0.337
[1]; first compound 0.007906 µM
  relative viability: 0.297
[1]; first compound 0.025 µM
  relative viability: 0.203
[1]; first compound 0.07906 µM
  relative viability: 0.224
[1]; first compound 0.25 µM
  relative viability: 0.237
IDH-C35 + Linsitinib; first compound 0.08 µM
  relative viability: 0.569
IDH-C35 + Linsitinib; first compound 0.253 µM
  relative viability: 0.536
IDH-C35 + Linsitinib; first compound 0.8 µM
  relative viability: 0.506
IDH-C35 + Linsitinib; first compound 2.53 µM
  relative viability: 0.593
IDH-C35 + Linsitinib; first compound 8 µM
  relative viability: 0.6
IDH-C35 + Decitabine; first compound 0.08 µM
  relative viability: 0.963
IDH-C35 + Decitabine; first compound 0.253 µM
  relative viability: 0.853
IDH-C35 + Decitabine; first compound 0.8 µM
  relative viability: 0.944
IDH-C35 + Decitabine; first compound 2.53 µM
  relative viability: 0.867
IDH-C35 + Decitabine; first compound 8 µM
  relative viability: 0.849
IDH-C35 + Trametinib; first compound 0.08 µM
  relative viability: 0.527
IDH-C35 + Trametinib; first compound 0.253 µM
  relative viability: 0.643
IDH-C35 + Trametinib; first compound 0.8 µM
  relative viability: 0.56
IDH-C35 + Trametinib; first compound 2.53 µM
  relative viability: 0.527
IDH-C35 + Trametinib; first compound 8 µM
  relative viability: 0.524

## LXF-289
[1]; first compound 0.0025 µM
  relative viability: 0.774
[1]; first compound 0.007906 µM
  relative viability: 0.684
[1]; first compound 0.025 µM
  relative viability: 0.56
[1]; first compound 0.07906 µM
  relative viability: 0.613
[1]; first compound 0.25 µM
  relative viability: 0.783
IDH-C35 + Linsitinib; first compound 0.08 µM
  relative viability: 0.94
IDH-C35 + Linsitinib; first compound 0.253 µM
  relative viability: 0.971
IDH-C35 + Linsitinib; first compound 0.8 µM
  relative viability: 0.936
IDH-C35 + Linsitinib; first compound 2.53 µM
  relative viability: 0.949
IDH-C35 + Linsitinib; first compound 8 µM
  relative viability: 0.956
IDH-C35 + Decitabine; first compound 0.08 µM
  relative viability: 0.405
IDH-C35 + Decitabine; first compound 0.253 µM
  relative viability: 0.401
IDH-C35 + Decitabine; first compound 0.8 µM
  relative viability: 0.38
IDH-C35 + Decitabine; first compound 2.53 µM
  relative viability: 0.371
IDH-C35 + Decitabine; first compound 8 µM
  relative viability: 0.415
IDH-C35 + Trametinib; first compound 0.08 µM
  relative viability: 0.701
IDH-C35 + Trametinib; first compound 0.253 µM
  relative viability: 0.628
IDH-C35 + Trametinib; first compound 0.8 µM
  relative viability: 0.643
IDH-C35 + Trametinib; first compound 2.53 µM
  relative viability: 0.676
IDH-C35 + Trametinib; first compound 8 µM
  relative viability: 0.668

## NCI-H522
[1]; first compound 0.0025 µM
  relative viability: 1.29
[1]; first compound 0.007906 µM
  relative viability: 1.22
[1]; first compound 0.025 µM
  relative viability: 1.11
[1]; first compound 0.07906 µM
  relative viability: 0.644
[1]; first compound 0.25 µM
  relative viability: 0.586
IDH-C35 + Decitabine; first compound 0.08 µM
  relative viability: 0.604
IDH-C35 + Decitabine; first compound 0.253 µM
  relative viability: 0.795
IDH-C35 + Decitabine; first compound 0.8 µM
  relative viability: 0.72
IDH-C35 + Decitabine; first compound 2.53 µM
  relative viability: 0.652
IDH-C35 + Decitabine; first compound 8 µM
  relative viability: 0.716
IDH-C35 + Trametinib; first compound 0.08 µM
  relative viability: 0.767
IDH-C35 + Trametinib; first compound 0.253 µM
  relative viability: 0.8
IDH-C35 + Trametinib; first compound 0.8 µM
  relative viability: 0.643
IDH-C35 + Trametinib; first compound 2.53 µM
  relative viability: 0.796
IDH-C35 + Trametinib; first compound 8 µM
  relative viability: 0.695

## NCI-H1299
IDH-C35 + Linsitinib; first compound 0.08 µM
  relative viability: 1.11
IDH-C35 + Linsitinib; first compound 0.253 µM
  relative viability: 0.969
IDH-C35 + Linsitinib; first compound 0.8 µM
  relative viability: 0.976
IDH-C35 + Linsitinib; first compound 2.53 µM
  relative viability: 1
IDH-C35 + Linsitinib; first compound 8 µM
  relative viability: 0.957

## NCI-H1563
[1]; first compound 0.0025 µM
  relative viability: 0.553
[1]; first compound 0.007906 µM
  relative viability: 0.542
[1]; first compound 0.025 µM
  relative viability: 0.524
[1]; first compound 0.07906 µM
  relative viability: 0.492
[1]; first compound 0.25 µM
  relative viability: 0.509
IDH-C35 + Linsitinib; first compound 0.08 µM
  relative viability: 1.15
IDH-C35 + Linsitinib; first compound 0.253 µM
  relative viability: 1.3
IDH-C35 + Linsitinib; first compound 0.8 µM
  relative viability: 1.15
IDH-C35 + Linsitinib; first compound 2.53 µM
  relative viability: 1.2
IDH-C35 + Linsitinib; first compound 8 µM
  relative viability: 1.16

## NCI-H1623
[1]; first compound 0.0025 µM
  relative viability: 0.64
[1]; first compound 0.007906 µM
  relative viability: 0.601
[1]; first compound 0.025 µM
  relative viability: 0.503
[1]; first compound 0.07906 µM
  relative viability: 0.499
[1]; first compound 0.25 µM
  relative viability: 0.554

## NCI-H1648
IDH-C35 + Decitabine; first compound 0.253 µM
  relative viability: 0.598
IDH-C35 + Decitabine; first compound 0.8 µM
  relative viability: 0.502
IDH-C35 + Decitabine; first compound 2.53 µM
  relative viability: 0.51
IDH-C35 + Decitabine; first compound 8 µM
  relative viability: 0.441
IDH-C35 + Trametinib; first compound 0.253 µM
  relative viability: 0.566
IDH-C35 + Trametinib; first compound 0.8 µM
  relative viability: 0.465
IDH-C35 + Trametinib; first compound 2.53 µM
  relative viability: 0.479
IDH-C35 + Trametinib; first compound 8 µM
  relative viability: 0.584

## NCI-H1650
[1]; first compound 0.0025 µM
  relative viability: 0.188
[1]; first compound 0.007906 µM
  relative viability: 0.192
[1]; first compound 0.025 µM
  relative viability: 0.203
[1]; first compound 0.07906 µM
  relative viability: 0.192
[1]; first compound 0.25 µM
  relative viability: 0.217
IDH-C35 + Decitabine; first compound 0.08 µM
  relative viability: 0.417
IDH-C35 + Decitabine; first compound 0.253 µM
  relative viability: 0.358
IDH-C35 + Decitabine; first compound 0.8 µM
  relative viability: 0.408
IDH-C35 + Decitabine; first compound 2.53 µM
  relative viability: 0.465
IDH-C35 + Decitabine; first compound 8 µM
  relative viability: 0.453
IDH-C35 + Trametinib; first compound 0.08 µM
  relative viability: 0.548
IDH-C35 + Trametinib; first compound 0.253 µM
  relative viability: 0.599
IDH-C35 + Trametinib; first compound 0.8 µM
  relative viability: 0.614
IDH-C35 + Trametinib; first compound 2.53 µM
  relative viability: 0.644
IDH-C35 + Trametinib; first compound 8 µM
  relative viability: 0.504

## NCI-H1703
IDH-C35 + Linsitinib; first compound 0.08 µM
  relative viability: 0.821
IDH-C35 + Linsitinib; first compound 0.253 µM
  relative viability: 0.787
IDH-C35 + Linsitinib; first compound 0.8 µM
  relative viability: 0.632
IDH-C35 + Linsitinib; first compound 2.53 µM
  relative viability: 0.778
IDH-C35 + Linsitinib; first compound 8 µM
  relative viability: 0.536

## NCI-H2170
[1]; first compound 0.0025 µM
  relative viability: 0.607
[1]; first compound 0.007906 µM
  relative viability: 0.79
[1]; first compound 0.025 µM
  relative viability: 0.753
[1]; first compound 0.07906 µM
  relative viability: 0.725
[1]; first compound 0.25 µM
  relative viability: 0.793
IDH-C35 + Decitabine; first compound 0.08 µM
  relative viability: 0.428
IDH-C35 + Decitabine; first compound 0.253 µM
  relative viability: 0.451
IDH-C35 + Decitabine; first compound 0.8 µM
  relative viability: 0.482
IDH-C35 + Decitabine; first compound 2.53 µM
  relative viability: 0.507
IDH-C35 + Decitabine; first compound 8 µM
  relative viability: 0.457
IDH-C35 + Trametinib; first compound 0.08 µM
  relative viability: 0.855
IDH-C35 + Trametinib; first compound 0.253 µM
  relative viability: 0.864
IDH-C35 + Trametinib; first compound 0.8 µM
  relative viability: 0.882
IDH-C35 + Trametinib; first compound 2.53 µM
  relative viability: 0.85
IDH-C35 + Trametinib; first compound 8 µM
  relative viability: 0.93

## NCI-H2228
[1]; first compound 0.0025 µM
  relative viability: 0.145
[1]; first compound 0.007906 µM
  relative viability: 0.161
[1]; first compound 0.025 µM
  relative viability: 0.207
[1]; first compound 0.07906 µM
  relative viability: 0.111
[1]; first compound 0.25 µM
  relative viability: 0.144
IDH-C35 + Linsitinib; first compound 0.08 µM
  relative viability: 0.596
IDH-C35 + Linsitinib; first compound 0.253 µM
  relative viability: 0.496
IDH-C35 + Linsitinib; first compound 0.8 µM
  relative viability: 0.629
IDH-C35 + Linsitinib; first compound 2.53 µM
  relative viability: 0.668
IDH-C35 + Linsitinib; first compound 8 µM
  relative viability: 0.749
IDH-C35 + Trametinib; first compound 0.08 µM
  relative viability: 0.456
IDH-C35 + Trametinib; first compound 0.253 µM
  relative viability: 0.559
IDH-C35 + Trametinib; first compound 0.8 µM
  relative viability: 0.458
IDH-C35 + Trametinib; first compound 2.53 µM
  relative viability: 0.836
IDH-C35 + Trametinib; first compound 8 µM
  relative viability: 0.546

## NCI-H2342
[1]; first compound 0.0025 µM
  relative viability: 0.768
[1]; first compound 0.007906 µM
  relative viability: 0.79
[1]; first compound 0.025 µM
  relative viability: 0.855
[1]; first compound 0.07906 µM
  relative viability: 0.784
[1]; first compound 0.25 µM
  relative viability: 0.602
IDH-C35 + Decitabine; first compound 0.08 µM
  relative viability: 0.719
IDH-C35 + Decitabine; first compound 0.253 µM
  relative viability: 0.745
IDH-C35 + Decitabine; first compound 0.8 µM
  relative viability: 0.757
IDH-C35 + Decitabine; first compound 2.53 µM
  relative viability: 0.714
IDH-C35 + Decitabine; first compound 8 µM
  relative viability: 0.744
IDH-C35 + Trametinib; first compound 0.08 µM
  relative viability: 0.771
IDH-C35 + Trametinib; first compound 0.253 µM
  relative viability: 0.762
IDH-C35 + Trametinib; first compound 0.8 µM
  relative viability: 0.769
IDH-C35 + Trametinib; first compound 2.53 µM
  relative viability: 0.767
IDH-C35 + Trametinib; first compound 8 µM
  relative viability: 0.736

## SW 900
[1]; first compound 0.0025 µM
  relative viability: 0.186
[1]; first compound 0.007906 µM
  relative viability: 0.182
[1]; first compound 0.025 µM
  relative viability: 0.16
[1]; first compound 0.07906 µM
  relative viability: 0.189
[1]; first compound 0.25 µM
  relative viability: 0.15
IDH-C35 + Decitabine; first compound 0.08 µM
  relative viability: 0.467
IDH-C35 + Decitabine; first compound 0.253 µM
  relative viability: 0.396
IDH-C35 + Decitabine; first compound 2.53 µM
  relative viability: 0.472
IDH-C35 + Decitabine; first compound 8 µM
  relative viability: 0.438
IDH-C35 + Trametinib; first compound 0.08 µM
  relative viability: 0.855
IDH-C35 + Trametinib; first compound 0.253 µM
  relative viability: 0.773
IDH-C35 + Trametinib; first compound 2.53 µM
  relative viability: 0.91
IDH-C35 + Trametinib; first compound 8 µM
  relative viability: 0.767
